ChEMBL document CHEMBL1152999, “Synthesis and anti-HSV-1 evaluation of some pyrazoles and fused pyrazolopyrimidines” (2009)

Experiments:
Human alphaherpesvirus 1 [1] = assay: Antiviral activity against HSV1 infected in african green monkey Vero cells assessed as reduction in virus plaque formation at 20 ug per 10^5 cells by plaque infectivity assay; assay type: functional; set-up: scale not given: the % may be the effect or the level left
Human alphaherpesvirus 1 [2] = assay: Antiviral activity against HSV1 infected in african green monkey Vero cells assessed as reduction in virus plaque formation at 10 ug per 10^5 cells by plaque infectivity assay; assay type: functional; set-up: scale not given: the % may be the effect or the level left

N#Cc1cnn(-c2ncnc3sc4c(c23)-c2ccccc2CC4)c1NC=O
Activity (Human alphaherpesvirus 1 [1]): 48% | Activity (Human alphaherpesvirus 1 [2]): 28.5%

Cc1nc2c(cnn2-c2ncnc3sc4c(c23)-c2ccccc2CC4)c(=O)[nH]1
Activity (Human alphaherpesvirus 1 [1]): 0% | Activity (Human alphaherpesvirus 1 [2]): 44.4%

N#Cc1cnn(-c2ncnc3sc4c(c23)-c2ccccc2CC4)c1N
Activity (Human alphaherpesvirus 1 [1]): 0% | Activity (Human alphaherpesvirus 1 [2]): 16.6%

OC[C@@H](O)[C@H](O)[C@@H](O)[C@H](O)/C=N/Nc1ncnc2c1cnn2-c1ncnc2sc3c(c12)-c1ccccc1CC3
Activity (Human alphaherpesvirus 1 [1]): 99% | Activity (Human alphaherpesvirus 1 [2]): 43%

CC(=O)OC[C@@H](OC(C)=O)[C@H](OC(C)=O)[C@@H](OC(C)=O)[C@@H](/C=N/Nc1ncnc2c1cnn2-c1ncnc2sc3c(c12)-c1ccccc1CC3)OC(C)=O
Activity (Human alphaherpesvirus 1 [1]): 69% | Activity (Human alphaherpesvirus 1 [2]): 34%

CC(=O)Nc1c(C#N)cnn1-c1ncnc2sc3c(c12)-c1ccccc1CC3
Activity (Human alphaherpesvirus 1 [1]): 67.6% | Activity (Human alphaherpesvirus 1 [2]): 0%

O=c1[nH]cnc2c1cnn2-c1ncnc2sc3c(c12)-c1ccccc1CC3
Activity (Human alphaherpesvirus 1 [1]): 0% | Activity (Human alphaherpesvirus 1 [2]): 47.7%

Nc1ncnc2c1cnn2-c1ncnc2sc3c(c12)-c1ccccc1CC3
Activity (Human alphaherpesvirus 1 [1]): 0% | Activity (Human alphaherpesvirus 1 [2]): 44.6%

CC(=O)OC[C@@H](OC(C)=O)[C@H](OC(C)=O)[C@@H](OC(C)=O)[C@H](OC(C)=O)c1nc2c3cnn(-c4ncnc5sc6c(c45)-c4ccccc4CC6)c3ncn2n1
Activity (Human alphaherpesvirus 1 [1]): 57% | Activity (Human alphaherpesvirus 1 [2]): 29%

Nc1nc2c(ncn2COCCO)c(=O)[nH]1 [ACYCLOVIR]
Activity (Human alphaherpesvirus 1 [1]): 28% | Activity (Human alphaherpesvirus 1 [2]): 12%

NNc1ncnc2c1cnn2-c1ncnc2sc3c(c12)-c1ccccc1CC3
Activity (Human alphaherpesvirus 1 [1]): 0% | Activity (Human alphaherpesvirus 1 [2]): 56%
